What was measured:
GRK2 [1] = target: T1, GRK2 (Homo sapiens, UniProt P25098); experiment: GRK2 Degradation Assay and Western Blot in PAXF1657 cells; assay type: cell-based; set-up: endogenous in cells; host or cells: PAXF1657; settings: PAXF1657 EV, 24 hrs
T1 sequence (P25098 1-689): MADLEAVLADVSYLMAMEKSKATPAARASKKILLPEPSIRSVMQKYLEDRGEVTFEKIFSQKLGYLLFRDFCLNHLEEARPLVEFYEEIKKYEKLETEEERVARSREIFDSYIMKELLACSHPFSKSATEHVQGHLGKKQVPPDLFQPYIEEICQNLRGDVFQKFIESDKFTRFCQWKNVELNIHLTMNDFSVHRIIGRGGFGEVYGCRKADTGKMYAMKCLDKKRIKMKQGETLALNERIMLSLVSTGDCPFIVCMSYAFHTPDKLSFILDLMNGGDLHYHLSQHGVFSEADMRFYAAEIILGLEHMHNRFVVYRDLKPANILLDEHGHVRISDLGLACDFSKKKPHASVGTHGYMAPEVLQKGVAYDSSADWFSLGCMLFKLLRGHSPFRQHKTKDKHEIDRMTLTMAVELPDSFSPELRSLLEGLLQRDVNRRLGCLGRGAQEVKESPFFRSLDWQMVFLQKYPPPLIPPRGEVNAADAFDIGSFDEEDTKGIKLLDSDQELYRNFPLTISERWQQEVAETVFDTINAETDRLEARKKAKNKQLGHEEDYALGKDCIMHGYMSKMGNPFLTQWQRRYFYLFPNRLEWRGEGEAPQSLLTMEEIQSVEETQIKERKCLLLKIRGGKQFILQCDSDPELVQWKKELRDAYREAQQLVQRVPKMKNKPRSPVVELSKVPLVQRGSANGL
Procedure, shortened: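 PAXF1657 cells grown to 70% confluency, then treated with compounds at 0–10 μM for 6 to 24 h at 37 °C. Lysates in PBS with 1% NP40 run on SDS-PAGE. GRK2 protein detected by western blot with β-actin as loading reference, using ECL chemiluminescence.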

PAXF1657 EV = experiment: 7-day cellular proliferation assay (CellTiter-Glo), PAXF1657 EV; assay type: cell-based; settings: 168 h, 7-day, read-out: 7-day proliferation assay: IC50 GeoMean (uM) [Cell Line: PAXF1657 EV]
Procedure, shortened: (§1)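 Read-out is CellTiter-Glo luminescence after 7 days of continuous exposure, with compound re-dosed in fresh medium at day 3. Cells were seeded at 500/well and treated across 30 μM-0.0002 μM (10 points, 0.3% DMSO); baseline viability plates were read at compound addition.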

GRK2 [2] = target: T1, GRK2; experiment: ADPGlo GRK2 Inhibition Assay (Example 2); assay type: biochemical; settings: ADP-Glo, 10 μM ATP; read-out: ADP Glo Enzymatic GRK2 Assay: IC50 (nM) (Example 2)
Experimental: Assay: GRK2 (7.5 nM) was incubated with ATP (10 μM) and GRKtide (0.3 mg/mL) in 5 μL of assay buffer (see above) for 180 min at room temperature. HTS was performed using 1 μM compound. Compounds were dissolved in 100% DMSO, serially diluted tree-fold from 100 μM concentration to 46 nM and transferred (50 nL) into assay ready plate.
Materials: GRK2 was purchased from SignalChem (Cat #A14-10G, Lot #X645-3). Substrate GRKtide was from SignalChem (Cat #G46-58, Lot #R339-6). ADP-Glo Kinase Assay from Promega (Cat #V9102). Assay buffer consisted of 25 mM HEPES (pH7.5), 10 mM MgCl2, 0.01% Tween-20, 1 mM DDT. 384-well white plates were from Greiner […] (Item #784075).
HTS protocol: Take 384 well plate with 50 nL of compound in columns 3-22/DMSO solution 1-2,23-24. Add 2.5 μL assay buffer to columns 23 and 24 using Thermo Scientific Multidrop Combi Dispenser. Add 2.5 μL of 2× enzyme solution (15 nM in 1× assay buffer) using Thermo Scientific Multidrop Combi Reagent Dispenser to all columns except of 23 and 24. Incubate for 15 minutes. Fill plate with 2.5 μL of 2× substrate mix (20 μM ATP and 0.6 mg/mL GRKtide in 1× assay buffer) using Thermo Scientific Multidrop Combi Reagent Dispenser. Spin 15 seconds at 1000 rpm and incubate for 180 min at room temperature. Add 5 μL ADP-Glo reagent to all the wells. Spin 15 seconds at 1000 rpm and incubate for 40 min at room temperature. Add 10 μL Detection solution to all the wells. Incubate for 30 min at room temperature. Read plate in Luminescent mode on BMG PheraStar FSX (gain=3600).
Data Analysis: Data were analyzed in GraphPad Prism 8.0.2. Each HTS plate contains compounds in columns 3-22, controls (enzyme, no compound) in columns 1 and 2, and blanks (no enzyme) in columns 23 and 24. HTS percent inhibition was calculated for each compound from the signal in luminescence units and the mean of the plate controls and the mean of the plate blanks using the following equation: % Inhibition=100*(1−((signal−blank mean)/(control mean−blank mean))). At the final stage of data processing, we obtain dose-response curves, tables and SDF-files with the results of screening for each substance.

PAXF1657 KO Clone #4 = experiment: 7-day cellular proliferation assay (CellTiter-Glo), PAXF1657 KO Clone #4; assay type: cell-based; settings: 168 h, 7-day, read-out: 7-day proliferation assay: IC50 GeoMean (uM) [Cell Line: PAXF1657 KO Clone #4]
Procedure, shortened: as §1

Row | inhibition at 0.3 µM (GRK2 [1]; 0.3 uM, read-out: % GRK2 degradation at 0.3 uM in PAXF1657 EV (24 hrs)) | inhibition at 1 µM (GRK2 [1]; 1 uM, read-out: % GRK2 degradation at 1 uM in PAXF1657 EV (24 hrs)) | inhibition at 3 µM (GRK2 [1]; 3 uM, read-out: % GRK2 degradation at 3 uM in PAXF1657 EV (24 hrs)) | IC50 (GRK2 [2]) | SMILES | IC50 (PAXF1657 EV) | IC50 (PAXF1657 KO Clone #4)
1 | 36% | 59% | 64% | < 100 nM | Cn1c(CNc2cccc(C(=O)NCc3cccc(OCCCCCCOCCOCC(=O)Nc4cccc5c4CN(C4CCC(=O)NC4=O)C5=O)c3)c2)nnc1-c1ccncn1 (stereo not shown) [Compound D72] | 1 to 10 µM | 1 to 10 µM
2 |  |  |  | < 100 nM | Cn1c(CNc2cccc(C(=O)NCc3cccc(OCCCCCCOCCOCCOCCOCC(=O)Nc4cccc5c4CN(C4CCC(=O)NC4=O)C5=O)c3)c2)nnc1-c1ccncn1 (stereo not shown) [Compound D71] |  | 
